Each structure is given as a SMILES string. Active and inactive are the calls of the source. No rule for the calls is given here.

The subject of this assay is in vivo angiogenesis, blood vessel count. Nature of the assay: angiogenesis inhibition in living animals, in vivo study, HTS (AID 732).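 Also: zebrafish embryos dosed at one day post fertilization; 0% = reference inhibitor and 100% = plate mean.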 To be noted: active compounds read low;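 tested at 30 µM in the well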.
For `Cc1nc(N=Nc2ccc(S(=O)(=O)O)cc2S(=O)(=O)O)c(COP(=O)(O)O)c(C=O)c1O`, the vessel count % control was 110% (inactive).

Turning to `CCCCCC(O)c1cccc(OCc2ccc3ccccc3n2)c1` (stereo unspecified), the vessel count % control was 83.4% (inactive).

In the case of `O=C1CC2(CCCC2)CC(=O)N1CCCCN1CCN(c2ncccn2)CC1`, the vessel count % control is 114% (inactive).

On to `CCCCCCCCCCCCCCCCCC(=O)NCC(COP(=O)([O-])OCC[N+](C)(C)C)OCC` (stereo unspecified), for which the vessel count % control was 101% (inactive).

Turning to `CCCCNc1c(C(=O)OCC)c(C)nc2c1cnn2CC`, the vessel count % control is 87.3% (inactive).

On to `NC(N)=NC(=O)c1nc(Cl)c(N)nc1N`, for which the vessel count % control was 117% (inactive).

On to `O=C(O)CNC(=O)C(CS)Cc1ccccc1` (stereo unspecified), for which the vessel count % control is 117% (inactive).

With `CC(=O)[C@]1(O)Cc2c(O)c3c(c(O)c2[C@@H](O[C@H]2C[C@H](N)[C@H](O)[C@H](C)O2)C1)C(=O)c1ccccc1C3=O`, the vessel count % control was 0% (inactive).

In the case of `Cc1ccccc1/C=C/C1=NCCN1`, the vessel count % control was 102% (inactive).

For `N[C@@H](Cn1cc(I)c(=O)[nH]c1=O)C(=O)O`, the vessel count % control was 107% (inactive).

For the compound `NC(=O)NO`, the vessel count % control was 97.8% (inactive).

`COc1ccc2c3c1O[C@H]1C(=O)CC[C@@]4(O)C(C2)N(CC2CC2)CCC314` (stereo partly specified): the vessel count % control is 124% (inactive).

In the case of `N#C/C(=C\c1ccc(O)c(O)c1)C(=O)c1ccc(O)c(O)c1`, the vessel count % control was 124% (inactive).

`S=C(S)N1CCCC1`: the vessel count % control is 73.2% (inactive).

For `Cc1ccc(OCC(O)C(C)NC(C)C)c2c1CCC2` (stereo unspecified), the vessel count % control was 103% (inactive).

On to `O=Nc1c(-c2c(O)[nH]c3ccc(Cl)cc23)[nH]c2ccccc12`, for which the vessel count % control is 88.2% (inactive).

Regarding `CC(C)NCC(O)COc1cccc2ccccc12` (stereo unspecified), the vessel count % control is 117% (inactive).

Turning to `O=S(=O)(c1cccc2c(Cl)cccc12)N1CCCNCC1`, the vessel count % control was 109% (inactive).

As for `c1cnc2c(c1)ccc1cccnc12`, the vessel count % control is 0% (inactive).

Consider `CC(N)(Cc1ccc(O)cc1)C(=O)O` (stereo unspecified), for which the vessel count % control is 105% (inactive).

Consider `CCCN(CC1CC1)c1nc(C)nc(Nc2c(Cl)cc(Cl)cc2Cl)c1Cl`, for which the vessel count % control was 125% (inactive).

With `CCN(CC)CC(=O)Nc1c(C)cccc1C`, the vessel count % control was 73.7% (inactive).

With `N=C(N)c1ccc(N)cc1`, the vessel count % control is 114% (inactive).

In the case of `Cc1ccc(/C(=C\CN2CCCC2)c2ccccn2)cc1`, the vessel count % control was 80% (inactive).

As for `Cc1ccc2[nH]c(O)c(-c3[nH]c4ccc(Br)cc4c3N=O)c2c1`, the vessel count % control was 33.9%.

For the compound `CN(C)CCC(c1ccccc1)c1ccccn1` (stereo unspecified), the vessel count % control is 109% (inactive).

On to `COc1ccc(C2CNC(=O)C2)cc1OC1CCCC1` (stereo unspecified), for which the vessel count % control was 96.6% (inactive).

Take `O=C(O)CC[N+](=O)[O-]`: the vessel count % control is 87.6% (inactive).

On to `C1CCC(N=C(NC23CC4CC(CC(C4)C2)C3)N2CCOCC2)CC1`, for which the vessel count % control was 111% (inactive).

For the compound `CCCCCCCCCCCCCCCC(=O)OC(CC(=O)O)C[N+](C)(C)C` (stereo unspecified), the vessel count % control is 92% (inactive).

Turning to `COc1ccccc1N1CCN(CCCCNC(=O)c2ccc3ccccc3c2)CC1`, the vessel count % control was 52% (inactive).

For the compound `COC[C@H]1OC(=O)c2coc3c2[C@@]1(C)C1=C(C3=O)C2CCC(=O)[C@@]2(C)C[C@H]1OC(C)=O` (stereo partly specified), the vessel count % control was 0% (inactive).

In the case of `CNCCC(Oc1ccc(C(F)(F)F)cc1)c1ccccc1` (stereo unspecified), the vessel count % control was 74.2% (inactive).

Take `O=C(OC1CCN(CCCl)CC1)C(c1ccccc1)c1ccccc1`: the vessel count % control is 102% (inactive).

`CCn1c(=O)c2[nH]c(-c3ccccc3)nc2n(CC)c1=O`: the vessel count % control is 63.2% (inactive).

Turning to `CN1C[C@@H](CS(=O)(=O)N(C)C)C[C@@H]2c3cccc4c3c(cn4C)C[C@H]21`, the vessel count % control is 103% (inactive).

With `Cc1cccc2c(C3=Nc4ccccc4C3=O)c(O)[nH]c12`, the vessel count % control is 26.6%.

Turning to `C=CCc1ccccc1OCC(O)CNC(C)C` (stereo unspecified), the vessel count % control was 105% (inactive).

As for `Nc1ncnc2c1ncn2[C@@H]1O[C@H](CO)[C@H](O)C1O` (stereo partly specified), the vessel count % control was 105% (inactive).

Take `O=C(O)c1cccnc1C(=O)O`: the vessel count % control is 88.1% (inactive).

Regarding `Oc1cc(O)c2c(c1)O[C@H](c1ccc(O)c(O)c1)[C@@H](O)C2`, the vessel count % control was 114% (inactive).

Consider `NC(=O)N1c2ccccc2C=Cc2ccccc21`, for which the vessel count % control was 96.4% (inactive).

As to `Cc1ncc(CNC(=O)N(CCCl)N=O)c(N)n1`, the vessel count % control was 90.1% (inactive).

With `C[C@]12CCC(=O)C=C1CC[C@@H]1[C@@H]2[C@@H](O)C[C@@]2(C)[C@H]1CC[C@]2(O)C(=O)COC(=O)CCC(=O)O`, the vessel count % control is 98.7% (inactive).

On to `NCC(O)C1CCCCCCC1` (stereo unspecified), for which the vessel count % control was 95.9% (inactive).

With `O=C(O)/C=C/c1cnc[nH]1`, the vessel count % control was 108% (inactive).

Turning to `C[C@H]1C2Cc3ccc(O)cc3C1(C)CCN2CC1CC1` (stereo partly specified), the vessel count % control was 70.9% (inactive).

As for `NC(CP(=O)(O)O)C(=O)O` (stereo unspecified), the vessel count % control was 103% (inactive).

For the compound `FC(F)(F)c1ccccc1-n1ccnc1`, the vessel count % control was 93.4% (inactive).

For the compound `Nc1nc(N)c2nc(CNc3ccc(C(=O)NC(CCC(=O)O)C(=O)O)cc3)cnc2n1` (stereo unspecified), the vessel count % control was 99.6% (inactive).

Consider `NCCc1c[nH]c2ccc(C(N)=O)cc12`, for which the vessel count % control is 112% (inactive).

As for `Nc1ccc(CCNc2ncnc3c2ncn3C2OC(CO)C(O)C2O)cc1` (stereo unspecified), the vessel count % control is 110% (inactive).

As to `CS(=O)(=O)Nc1ccc([N+](=O)[O-])cc1Oc1ccccc1`, the vessel count % control is 80.2% (inactive).

Turning to `CCN(CC)CCNC(=O)c1cc(S(C)(=O)=O)ccc1OC`, the vessel count % control was 68.7% (inactive).

For `Cc1cccc(C#Cc2ccccc2)n1`, the vessel count % control was 92.1% (inactive).

With `O=C1N=C(O)CN1/N=C/c1ccc(-c2ccc([N+](=O)[O-])cc2)o1`, the vessel count % control is 90.4% (inactive).

With `Cc1ccc(S(=O)(=O)N[C@@H](CCCCN)C(=O)CCl)cc1`, the vessel count % control was 133% (inactive).

Consider `CCn1ccnc1CC1COc2ccccc2O1` (stereo unspecified), for which the vessel count % control was 100% (inactive).

For `COc1cc(-c2ccc(=O)[nH]n2)ccc1OC(F)F`, the vessel count % control was 75.5% (inactive).

For `COCCc1ccc(OCC(O)CNC(C)C)cc1` (stereo unspecified), the vessel count % control is 128% (inactive).

As to `CN1CCc2cc(O)c(O)cc2C(c2ccccc2)C1` (stereo unspecified), the vessel count % control is 107% (inactive).

Consider `CC(N)[C@H](O)c1ccc(O)c(O)c1` (stereo partly specified), for which the vessel count % control was 106% (inactive).

For the compound `CC(=O)OCC1=C(C(=O)O)N2C(=O)[C@@H](NC(=O)CSc3ccncc3)[C@H]2SC1`, the vessel count % control was 97.3% (inactive).

For `N=c1nc(N2CCCCC2)cc(N)n1O`, the vessel count % control is 114% (inactive).

For `CC(C)c1cccc(C(C)C)c1O`, the vessel count % control is 99.6% (inactive).

On to `NC1CC1c1ccccc1` (stereo unspecified), for which the vessel count % control is 94.1% (inactive).
